Source: ChEMBL document CHEMBL3885861, “Open TG-GATES”

Organism: Rattus norvegicus
Assay: Open TG-GATES - Regimen: Single
Format: toxicity, organism-based, Sprague-Dawley
Design: regimen Single, gender Male, age 6 weeks
Settings: in vivo, po, 100 mg/kg, route gavage, dose level Low; for APTT / Bas / Eos / Fbg / Hb / Ht / Lym / MCH / MCHC / MCV / Mono / Neu / PT / Plat / RBC / Ret / WBC: tissue Blood; for KIDNEY_L / KIDNEY_R / KIDNEY_TOTAL: tissue Kidney; for LIVER: tissue Liver; for A/G / ALP / ALT / AST / BUN / CRE / Ca / Cl / DBIL / GLC / IP / K / LDH / Na / PL / RALB / TBIL / TC / TG / TP / gamma-GTP: tissue Plasma

CC(C)(S)[C@@H](N)C(=O)O [PENICILLAMINE]
TERMINAL_BW (3 h): 201.7 g | APTT (3 h): 15.4 s | Bas (3 h): 0% | Eos (3 h): 1% | Fbg (3 h): 283 mg/dL | Hb (3 h): 13.5 g/dL | Ht (3 h): 41.8% | Lym (3 h): 79.2% | MCH (3 h): 20.5 pg | MCHC (3 h): 32.4% | MCV (3 h): 63.4 fL | Mono (3 h): 2.8% | Neu (3 h): 16.4% | PT (3 h): 15 s | Plat (3 h): 118.1 x10_4/uL | RBC (3 h): 659.6 x10_4/ul | Ret (3 h): 9.3% | WBC (3 h): 78.7 x10_2/uL | KIDNEY_L (3 h): 0.9 g | KIDNEY_R (3 h): 0.9 g | KIDNEY_TOTAL (3 h): 1.8 g | LIVER (3 h): 8.7 g | A/G (3 h): 1 | ALP (3 h): 1342 IU/L | ALT (3 h): 42.6 IU/L | AST (3 h): 74.4 IU/L | BUN (3 h): 9.6 mg/dL | CRE (3 h): 0.2 mg/dL | Ca (3 h): 10.8 mg/dL | Cl (3 h): 106.6 meq/L | DBIL (3 h): 0.012 mg/dL | GLC (3 h): 186.8 mg/dL | IP (3 h): 8.2 mg/dL | K (3 h): 4.3 meq/L | LDH (3 h): 61.2 IU/L | Na (3 h): 142.2 meq/L | PL (3 h): 139 mg/dL | RALB (3 h): 2.6 g/dL | TBIL (3 h): 0.036 mg/dL | TC (3 h): 74.4 mg/dL | TG (3 h): 63.6 mg/dL | TP (3 h): 5.3 g/dL | gamma-GTP (3 h): 1 IU/L | TERMINAL_BW (6 h): 200.9 g | APTT (6 h): 18.6 s | Bas (6 h): 0% | Eos (6 h): 1% | Fbg (6 h): 310 mg/dL | Hb (6 h): 13.4 g/dL | Ht (6 h): 41.5% | Lym (6 h): 74.8% | MCH (6 h): 20.6 pg | MCHC (6 h): 32.2% | MCV (6 h): 63.9 fL | Mono (6 h): 3% | Neu (6 h): 20.6% | PT (6 h): 14.7 s | Plat (6 h): 117.7 x10_4/uL | RBC (6 h): 651 x10_4/ul | Ret (6 h): 9.1% | WBC (6 h): 91.5 x10_2/uL | KIDNEY_L (6 h): 0.9 g | KIDNEY_R (6 h): 0.9 g | KIDNEY_TOTAL (6 h): 1.8 g | LIVER (6 h): 8.2 g | A/G (6 h): 0.9 | ALP (6 h): 1252 IU/L | ALT (6 h): 38 IU/L | AST (6 h): 76 IU/L | BUN (6 h): 7.2 mg/dL | CRE (6 h): 0.2 mg/dL | Ca (6 h): 10.7 mg/dL | Cl (6 h): 106.6 meq/L | DBIL (6 h): 0.01 mg/dL | GLC (6 h): 175.4 mg/dL | IP (6 h): 8.7 mg/dL | K (6 h): 4 meq/L | LDH (6 h): 63.8 IU/L | Na (6 h): 143 meq/L | PL (6 h): 138.2 mg/dL | RALB (6 h): 2.5 g/dL | TBIL (6 h): 0.038 mg/dL | TC (6 h): 78.8 mg/dL | TG (6 h): 44.6 mg/dL | TP (6 h): 5.2 g/dL | gamma-GTP (6 h): 1.2 IU/L | TERMINAL_BW (9 h): 200 g | APTT (9 h): 15.2 s | Bas (9 h): 0% | Eos (9 h): 0.8% | Fbg (9 h): 315.8 mg/dL | Hb (9 h): 13.3 g/dL | Ht (9 h): 41.2% | Lym (9 h): 78% | MCH (9 h): 20.5 pg | MCHC (9 h): 32.3% | MCV (9 h): 63.6 fL | Mono (9 h): 2.2% | Neu (9 h): 18.4% | PT (9 h): 14.3 s | Plat (9 h): 124 x10_4/uL | RBC (9 h): 647.4 x10_4/ul | Ret (9 h): 9% | WBC (9 h): 74.3 x10_2/uL | KIDNEY_L (9 h): 0.9 g | KIDNEY_R (9 h): 0.9 g | KIDNEY_TOTAL (9 h): 1.8 g | LIVER (9 h): 7.9 g | A/G (9 h): 0.9 | ALP (9 h): 1373.8 IU/L | ALT (9 h): 40 IU/L | AST (9 h): 68.6 IU/L | BUN (9 h): 9.6 mg/dL | CRE (9 h): 0.2 mg/dL | Ca (9 h): 10.7 mg/dL | Cl (9 h): 106.4 meq/L | DBIL (9 h): 0.008 mg/dL | GLC (9 h): 166.2 mg/dL | IP (9 h): 10 mg/dL | K (9 h): 4 meq/L | LDH (9 h): 54.4 IU/L | Na (9 h): 143.2 meq/L | PL (9 h): 137 mg/dL | RALB (9 h): 2.6 g/dL | TBIL (9 h): 0.034 mg/dL | TC (9 h): 79.6 mg/dL | TG (9 h): 45 mg/dL | TP (9 h): 5.4 g/dL | gamma-GTP (9 h): 1.2 IU/L | TERMINAL_BW (24 h): 219.1 g | APTT (24 h): 16.6 s | Bas (24 h): 0% | Eos (24 h): 0.8% | Fbg (24 h): 272.4 mg/dL | Hb (24 h): 13 g/dL | Ht (24 h): 40% | Lym (24 h): 78.6% | MCH (24 h): 20.8 pg | MCHC (24 h): 32.4% | MCV (24 h): 64.2 fL | Mono (24 h): 2.8% | Neu (24 h): 16.8% | PT (24 h): 14.2 s | Plat (24 h): 125.3 x10_4/uL | RBC (24 h): 623.4 x10_4/ul | Ret (24 h): 8% | WBC (24 h): 90.1 x10_2/uL | KIDNEY_L (24 h): 0.9 g | KIDNEY_R (24 h): 0.9 g | KIDNEY_TOTAL (24 h): 1.9 g | LIVER (24 h): 10.4 g | A/G (24 h): 0.9 | ALP (24 h): 1649.2 IU/L | ALT (24 h): 45 IU/L | AST (24 h): 70.4 IU/L | BUN (24 h): 13.4 mg/dL | CRE (24 h): 0.2 mg/dL | Ca (24 h): 11 mg/dL | Cl (24 h): 104.4 meq/L | DBIL (24 h): 0.012 mg/dL | GLC (24 h): 178.6 mg/dL | IP (24 h): 7.9 mg/dL | K (24 h): 4 meq/L | LDH (24 h): 81.6 IU/L | Na (24 h): 143.2 meq/L | PL (24 h): 155.2 mg/dL | RALB (24 h): 2.7 g/dL | TBIL (24 h): 0.026 mg/dL | TC (24 h): 81.6 mg/dL | TG (24 h): 93.6 mg/dL | TP (24 h): 5.5 g/dL | gamma-GTP (24 h): 1 IU/L
